Assay results: patent US10214531B2 (Institute for Drug Discovery, LLC, priority 2013, dated 2019)
Structures can show the parent of a compound that is named as a salt.

These molecules were tested against recombinant human AMCase (Homo sapiens, UniProt Q9BZP6) (assay: Human AMCase Activity Assay). Conditions: recombinant hAMCase, 4-methylumbelliferyl chitobioside substrate, citrate buffer pH 5.2, 37° C., 60 minutes; read-out: Activity (IC50 value key).
Type: biochemical
Method: Human AMCase Activity Assay
The assay was run in the 96-well plate format, each reaction in the total volume of 100 μl. 4-Methylumbelliferyl B-D-N,N′ diacetylchitobioside hydrate was used as a substrate for the enzyme. Upon hydrolysis by AMCase, the substrate releases 4-methylumbelliferyl (4MU), when ionized in basic pH, emits fluorescence of 460 nm.
Briefly, 40 μl of a substrate was added to each well, followed by 10 μl of compound dilution and 50 μl of hAMCase recombinant enzyme solution. The reaction was carried out in citrate buffer, pH 5.2, in the dark, at 37° C. for 60 minutes with shaking.

Chain of recombinant human AMCase (Q9BZP6 22-476): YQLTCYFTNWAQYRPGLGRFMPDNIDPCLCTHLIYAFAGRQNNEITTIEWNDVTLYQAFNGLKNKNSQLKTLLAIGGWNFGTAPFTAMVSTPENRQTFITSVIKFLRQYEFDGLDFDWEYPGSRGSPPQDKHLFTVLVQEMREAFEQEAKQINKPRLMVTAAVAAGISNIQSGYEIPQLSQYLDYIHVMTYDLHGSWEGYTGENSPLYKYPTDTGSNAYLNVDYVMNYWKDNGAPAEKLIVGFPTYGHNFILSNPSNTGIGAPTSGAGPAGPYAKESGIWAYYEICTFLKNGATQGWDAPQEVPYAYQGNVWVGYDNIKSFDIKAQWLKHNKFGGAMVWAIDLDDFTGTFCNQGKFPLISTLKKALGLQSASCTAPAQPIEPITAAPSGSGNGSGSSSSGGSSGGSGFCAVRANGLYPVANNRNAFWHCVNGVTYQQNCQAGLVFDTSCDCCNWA

SMILES	IC50
Nc1n[nH]c(N2CCN(CCOc3ccc(F)cc3)CC2)n1 [Example 1, 5-(4-(2-(4-fluorophenoxy)ethyl)piperazin-1-yl)-1H-1,2,4-triazol-3-amine]	> 100 µM
Nc1n[nH]c(N2CCN(CCOc3ccc(Cl)cc3)CC2)n1 [Example 2, 5-(4-(2-(4-chlorophenoxy)ethyl)piperazin-1-yl)-1H-1,2,4-triazol-3-amine]	1 to 10 µM
CCOc1ccc(CN2CCN(c3nc(N)n[nH]3)CC2)cc1 [Example 3, 5-(4-(4-ethoxybenzyl)piperazin-1-yl)-1H-1,2,4-triazol-3-amine]	> 100 µM
CCC(Oc1ccc(Br)cc1)C(=O)N1CCN(c2nc(N)n[nH]2)CC1 (centres unmarked) [Example 5, 1-[4-(3-amino-1H-1,2,4-triazol-5-yl)piperazin-1-yl]-2-(4-bromophenoxy)butan-1-one]	> 100 µM
C[C@@H](Oc1ccc(Br)cc1)C(=O)N1CCN(c2nc(N)n[nH]2)CC1 [Example 6, (R)-1-(4-(3-amino-1H-1,2,4-triazol-5-yl)piperazin-1-yl)-2-(4-bromophenoxy)propan-1-one]	> 100 µM
C[C@H](Oc1ccc(Br)cc1)C(=O)N1CCN(c2nc(N)n[nH]2)CC1 [Example 7, (S)-1-(4-(3-amino-1H-1,2,4-triazol-5-yl)piperazin-1-yl)-2-(4-bromophenoxy)-propan-1-one]	> 100 µM
CCC(Oc1ccc(Cl)cc1)C(=O)N1CCN(c2nc(N)n[nH]2)CC1 (centres unmarked) [Example 8, 1-(4-(3-amino-1H-1,2,4-triazol-5-yl)piperazin-1-yl)-2-(4-chlorophenoxy)-butan-1-one]	> 100 µM
C[C@@H](Oc1ccc(Cl)cc1)C(=O)N1CCN(c2nc(N)n[nH]2)CC1 [Example 9, (R)-1-(4-(3-amino-1H-1,2,4-triazol-5-yl)piperazin-1-yl)-2-(4-chlorophenoxy)-propan-1-one]	> 100 µM
C[C@H](Oc1ccc(Cl)cc1)C(=O)N1CCN(c2nc(N)n[nH]2)CC1 [Example 10, (S)-1-(4-(3-amino-1H-1,2,4-triazol-5-yl)piperazin-1-yl)-2-(4-chlorophenoxy)propan-1-one]	> 100 µM
Nc1n[nH]c(N2CCC(CNS(=O)(=O)c3ccc(Br)cc3)CC2)n1 [Example 12, N-((1-(3-amino-1H-1,2,4-triazol-5-yl)piperidin-4-yl)methyl)-4-bromobenzenesulfonamide]	> 100 µM
Nc1n[nH]c(N2CCC(NS(=O)(=O)Cc3ccc(Cl)cc3)CC2)n1 [Example 14, N-(1-(3-amino-1H-1,2,4-triazol-5-yl)piperidin-4-yl)-1-(4-chlorophenyl)methanesulfonamide dihydrochloride]	1 to 10 µM
Nc1n[nH]c(N2CCC(NS(=O)(=O)Cc3ccc(Cl)c(Cl)c3)CC2)n1 [Example 15, N-(1-(3-amino-1H-1,2,4-triazol-5-yl)piperidin-4-yl)-1-(3,4-dichlorophenyl)methanesulfonamide]	10 to 100 µM
Nc1n[nH]c(N2CCC(C(=O)NCc3ccc(Cl)c(Cl)c3)CC2)n1 [Example 17, 1-(3-amino-1H-1,2,4-triazol-5-yl)-N-(3,4-dichlorobenzyl)piperidine-4-carboxamide]	> 100 µM
CC(CCc1ccc(Br)cc1)N1CCN(c2nc(N)n[nH]2)CC1 (centres unmarked) [Example 19, 5-(4-(4-(4-bromophenyl)butan-2-yl)piperazin-1-yl)-1H-1,2,4-triazol-3-amine]	10 to 100 µM
CC(CN1CCN(c2nc(N)n[nH]2)CC1)Oc1ccc(Br)cc1 (centres unmarked) [Example 20-1, 5-(4-(2-(4-bromophenoxy)propyl)piperazin-1-yl)-1H-1,2,4-triazol-3-amine]	10 to 100 µM
CC(COc1ccc(Br)cc1)N1CCN(c2nc(N)n[nH]2)CC1 (centres unmarked) [Example 20-2, 5-(4-(1-(4-bromophenoxy)propan-2-yl)piperazin-1-yl)-1H-1,2,4-triazol-3-amine]	10 to 100 µM
Nc1n[nH]c(N2CCC(NCCc3ccc(Br)cc3)CC2)n1 [Example 22, 1-(3-amino-1H-1,2,4-triazol-5-yl)-N-(4-bromophenethyl)piperidin-4-amine]	1 to 10 µM
Nc1n[nH]c(N2CCN(CCOc3ccc(Cl)c4ccccc34)CC2)n1 [Example 23, 5-(4-(2-((4-chloronaphthalen-1-yl)oxy)ethyl)piperazin-1-yl)-1H-1,2,4-triazol-3-amine]	1 to 10 µM
Nc1n[nH]c(N2CCN(C(=O)COc3ccc(Cl)cc3)CC2)n1 [Example 24, 1-(4-(3-amino-1H-1,2,4-triazol-5-yl)piperazin-1-yl)-2-(4-chlorophenoxy)-ethanone]	> 100 µM
Nc1n[nH]c(N2CCN(C(=O)COc3ccc4ccccc4c3)CC2)n1 [Example 25, 1-(4-(3-amino-1H-1,2,4-triazol-5-yl)piperazin-1-yl)-2-(naphthalen-2-yloxy) ethanone]	> 100 µM
CC1CN(c2nc(N)n[nH]2)CCN1CCOc1ccc(Br)cc1 (centres unmarked) [Example 26, 5-(4-(2-(4-bromophenoxy)ethyl)-3-methylpiperazin-1-yl)-1H-1,2,4-triazol-3-amine]	1 to 10 µM
Cn1nc(N2CCN(CCOc3ccc(Br)cc3)CC2)nc1N [Example 27-1, 3-(4-(2-(4-bromophenoxy)ethyl)piperazin-1-yl)-1-methyl-1H-1,2,4-triazol-5-amine]	> 100 µM
Cn1nc(N)nc1N1CCN(CCOc2ccc(Br)cc2)CC1 [Example 27-2, 5-(4-(2-(4-bromophenoxy)ethyl)piperazin-1-yl)-1-methyl-1H-1,2,4-triazol-3-amine]	> 100 µM

Second part, the molecule after the results:

IC50	SMILES
0.1 to 1 µM	CC1CN(c2nc(N)n[nH]2)CCC1NCCc1ccc(Cl)cc1 (mixture of isomers) [Example 132, 1-(3-amino-1H-1,2,4-triazol-5-yl)-N-(4-chlorophenethyl)-3-methylpiperidin-4-amine dihydrochloride (4:1 diastereoisomeric mixture)]
0.1 to 1 µM	CCCC1CN(c2nc(N)n[nH]2)CCC1NCCc1ccc(Cl)cc1 (single isomer, unassigned) [Example 231, 1-(3-amino-1H-1,2,4-triazol-5-yl)-N-(4-chlorophenethyl)-3-propylpiperidin-4-amine]
0.1 to 1 µM	CCCC1CN(c2nc(N)n[nH]2)CCC1NCCc1ccc(Cl)cc1 (single isomer, unassigned) [Example 234, 1-(3-amino-1H-1,2,4-triazol-5-yl)-N-(4-chlorophenethyl)-3-propylpiperidin-4-amine]
> 100 µM	Nc1n[nH]c(N2CCCN(CCOc3ccc(Br)cc3)CC2)n1 [Example 28, 5-{4-[2-(4-bromophenoxy)ethyl]-[1,4]-diazepan-1-yl}-1H-1,2,4-triazol-3-amine]
> 100 µM	Nc1n[nH]c(N2CC3CN(CCOc4ccc(Br)cc4)CC3C2)n1 (centres unmarked) [Example 29, 5-(5-(2-(4-bromophenoxy)ethyl)hexahydropyrrolo[3,4-c]pyrrol-2(1H)-yl)-1H-1,2,4-triazol-3-amine]
> 100 µM	Nc1n[nH]c(N2CCN(C(=O)COc3ccccc3)CC2)n1 [Example 30, 1-(4-(3-amino-1H-1,2,4-triazol-5-yl)piperazin-1-yl)-2-phenoxyethanone]
> 100 µM	CCc1ccc(OC(C)C(=O)N2CCN(c3nc(N)n[nH]3)CC2)cc1 (centres unmarked) [Example 31, 1-(4-(3-amino-1H-1,2,4-triazol-5-yl)piperazin-1-yl)-2-(4-ethylphenoxy)propan-1-one]
> 100 µM	Cc1ccccc1OC(C)C(=O)N1CCN(c2nc(N)n[nH]2)CC1 (centres unmarked) [Example 32, 1-(4-(3-amino-1H-1,2,4-triazol-5-yl)piperazin-1-yl)-2-(o-tolyloxy)propan-1-one]
> 100 µM	CCc1ccccc1OC(C)C(=O)N1CCN(c2nc(N)n[nH]2)CC1 (centres unmarked) [Example 33, 1-(4-(3-amino-1H-1,2,4-triazol-5-yl)piperazin-1-yl)-2-(2-ethylphenoxy)propan-1-one]
> 100 µM	Cc1ccc(C)c(OC(C)C(=O)N2CCN(c3nc(N)n[nH]3)CC2)c1 (centres unmarked) [Example 34, 1-(4-(3-amino-1H-1,2,4-triazol-5-yl)piperazin-1-yl)-2-(2,5-dimethylphenoxy)propan-1-one]
> 100 µM	Cc1ccc(OC(C)C(=O)N2CCN(c3nc(N)n[nH]3)CC2)c(C)c1 (centres unmarked) [Example 35, 1-(4-(3-amino-1H-1,2,4-triazol-5-yl)piperazin-1-yl)-2-(2,4-dimethylphenoxy)propan-1-one]
> 100 µM	Cc1cccc(OC(C)C(=O)N2CCN(c3nc(N)n[nH]3)CC2)c1 (centres unmarked) [Example 36, 1-(4-(3-amino-1H-1,2,4-triazol-5-yl)piperazin-1-yl)-2-(m-tolyloxy)propan-1-one]
> 100 µM	CC(Oc1cccc(F)c1F)C(=O)N1CCN(c2nc(N)n[nH]2)CC1 (centres unmarked) [Example 37, 1-(4-(3-amino-1H-1,2,4-triazol-5-yl)piperazin-1-yl)-2-(2,3-difluorophenoxy)propan-1-one]
> 100 µM	Nc1n[nH]c(N2CCNCC2)n1 [Example 38, 5-(piperazin-1-yl)-1H-1,2,4-triazol-3-amine trihydrochloride]
1 to 10 µM	CC(Cc1ccc(Br)cc1)CN1CCN(c2nc(N)n[nH]2)CC1 (centres unmarked) [Example 39, 5-(4-(3-(4-bromophenyl)-2-methylpropyl)piperazin-1-yl)-1H-1,2,4-triazol-3-amine dihydrochloride]
> 100 µM	Nc1n[nH]c(N2CCN(C(=O)CC(N)c3ccc(Cl)cc3)CC2)n1 (centres unmarked) [Example 40, 3-amino-1-(4-(3-amino-1H-1,2,4-triazol-5-yl)piperazin-1-yl)-3-(4-chlorophenyl)propan-1-one]
> 100 µM	Nc1n[nH]c(N2CCC(c3nc(-c4ccc5c(c4)OCO5)no3)CC2)n1 [Example 41, 5-(4-(3-(benzo[d][1,3]dioxol-5-yl)-1,2,4-oxadiazol-5-yl)piperidin-1-yl)-1H-1,2,4-triazol-3-amine]
> 100 µM	CS(=O)(=O)c1ccc(-c2noc(C3CCN(c4nc(N)n[nH]4)CC3)n2)cc1 [Example 42, 5-(4-(3-(4-(methylsulfonyl)phenyl)-1,2,4-oxadiazol-5-yl)piperidin-1-yl)-1H-1,2,4-triazol-3-amine]
